Assays:
MDR cells = conditions: in vitro and in vivo; cited from earlier work
AR 1.0 cells [1] = test: Drug accumulation assay: daunorubicin accumulation in AR 1.0 cells; type: cell-based; conditions: Mus musculus, 100% = accumulation with verapamil 100 μM, 1 hr, 37° C.
Summary of the method: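 AR 1.0 is the MDR-resistant subline of EMT6 mouse mammary carcinoma, grown in RPMI 1640 with 10% foetal calf serum and 2 mM glutamine at 37 °C, 5% CO2. Cells were seeded 48 h before the daunorubicin accumulation assay.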

AR 1.0 cells [2] = test: Potentiation index with doxorubicin titration; type: cell-based, mouse
Summary of the method: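 MDR-resistant mouse EMT6 subline AR 1.0 grown four days with a doxorubicin titration (0.263 nM-17.24 μM) plus a fixed compound concentration; proliferation by sulphorhodamine B. Potentiation index derived from doxorubicin IC50 alone versus with compound.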

2780AD cells = test: Potentiation of toxicity of various cytotoxic agents, 2780AD cell line; type: cell-based; conditions: Taxol
Protocol: (§1) (b) Cells were cultured for four days with a titration of doxorubicin (0.263 nM-17.24 μM) in the presence of a fixed concentration of each compound. Proliferation was quantified as described by Skehen et al, loc cit. The IC50 (concentration required to reduce proliferation to 50% of the untreated controls) for doxorubicin alone and with each compound were derived and used to calculate the potentiation index (PI): [formula]
(§2) The potentiation indices of a selection of compounds using a variety of cell lines and a variety of cytotoxics other than doxorubicin were measured following the protocol described above for doxorubicin, and the results are shown in Table D.

H69/LX4 cells = test: Potentiation of toxicity of various cytotoxic agents, H69/LX4 cell line; type: cell-based; conditions: Vincristine
Protocol: as §1, §2

AR 1.0 cells [3] = test: Potentiation of toxicity of various cytotoxic agents, AR 1.0 cell line; type: cell-based, mouse; conditions: Taxol
Protocol: The EMT6 mouse mammary carcinoma cell line and the MDR resistant subline AR 1.0 were cultured in RPMI 1640 medium containing 10% foetal calf serum and 2 mM glutamine at 37° C. in 5% CO2. Cells were passaged between 1 in 200 and 1 in 2000 in the case of the parental cell line and between 1 in 20 and 1 in 200 in the case of the MDR resistant subline, after trypsinisation (0.25% trypsin, 0.2 gl^-1, EDTA).
as §1, §2

mdr la P-gp gene = conditions: cited from earlier work

## COc1ccc(CCN(C)CCCC(C#N)(c2ccc(OC)c(OC)c2)C(C)C)cc1OC (stereo not shown) [Verapamil]
MDR cells
  sensitisation of MDR cells to Vinca alkaloids: shown to sensitise MDR cells to Vinca alkaloids in vitro and in vivo

## COc1cc2c(cc1OC)CN(CCc1ccc(NC(=O)c3sccc3NC(=O)c3cnc4ccccc4c3)cc1)CC2 [compound 9594, Quinoline-3-carboxylic acid (2-{4-[2-(6,7-dimethoxy-3,4-dihydro-1H-isoquinolin-2-yl)-ethyl]-phenylcarbamoyl}-thiophen-3-yl)-amide]
AR 1.0 cells [1]
  IC50: 87 nM
AR 1.0 cells [2]; Table C1, RMA 10 nM
  Potentiation Index at RMA concentration 10 nM: 11
AR 1.0 cells [2]; Table C1, RMA 30 nM
  Potentiation Index at RMA concentration 30 nM: 159
AR 1.0 cells [2]; Table C1, RMA 50 nM
  Potentiation Index at RMA concentration 50 nM: 307
AR 1.0 cells [2]; Table C1, RMA 100 nM
  Potentiation Index at RMA concentration 100 nM: 601
2780AD cells; RMA 10 nM
  Potentiation Index at RMA concentration 10 nM: 18
2780AD cells; RMA 30 nM
  Potentiation Index at RMA concentration 30 nM: 425
2780AD cells; RMA 50 nM
  Potentiation Index at RMA concentration 50 nM: 1126
H69/LX4 cells; RMA 10 nM
  Potentiation Index at RMA concentration 10 nM: 2
H69/LX4 cells; RMA 30 nM
  Potentiation Index at RMA concentration 30 nM: 79
H69/LX4 cells; RMA 50 nM
  Potentiation Index at RMA concentration 50 nM: 356
AR 1.0 cells [3]; RMA 10 nM
  Potentiation Index at RMA concentration 10 nM: 50
AR 1.0 cells [3]; RMA 30 nM
  Potentiation Index at RMA concentration 30 nM: 308
AR 1.0 cells [3]; RMA 50 nM
  Potentiation Index at RMA concentration 50 nM: 407

## ivermectin
Mdr la P-gp gene
  increased sensitivity of mice deficient in mdr la P-gp gene: up to 100 fold

Reference: US6218393A, “Anthranilic acid derivatives as multi drug resistance modulators” (priority 1997, dated 2001)
